Patent publication US9040565B2, “1H-benzimidazole-5-carboxamides as anti-inflammatory agents” (Orexo AB, priority 2008, dated 2015)

Molecular target: T1, recombinant human mPGES-1 (Homo sapiens, UniProt O14684)
T1 construct: made in house; host or cells: Rosetta E. coli (microsomal/membrane fraction)
T1 sequence (O14684 1-152): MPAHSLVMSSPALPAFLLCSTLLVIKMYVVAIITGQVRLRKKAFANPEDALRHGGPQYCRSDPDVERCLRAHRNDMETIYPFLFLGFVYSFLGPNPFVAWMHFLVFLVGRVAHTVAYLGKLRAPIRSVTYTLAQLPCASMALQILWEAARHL
Experiment: mPGES-1 inhibition, HTRF detection of PGE2 (Biological Test)
Type: biochemical
Protocol: Microsomes from Rosetta E. coli bacteria expressing recombinant human mPGES-1 is dissolved in 0.1 M KPi pH 7.4 buffer containing 2.5 mM GSH. 50 μl of the enzyme is subsequently dispensed in a 384-well plate. 0.5 μl of the inhibitor dissolved in DMSO at is thereafter added to each well and incubated for 25 minutes at room temperature.
Subsequently, 2 μl of PGH2 dissolved in an appropriate solvent is added to each well and after one minute the acidified stop solution containing FeCl2 is added. 4 μl of the total volume is transferred to a separate plate and diluted 750-fold in two separate steps before HTRF detection of PGE2.
The HTRf detection is performed by the use of a commercially available kit from CisBio essentially according to the manufacturer's protocol. Briefly, 10 μl of the diluted sample is transferred to a white 384-well plate. 5 μl of d2 and 5 μl Eu3+-Cryptate labeled anti-PGE2 is added to each well containing samples by the use of a Multidrop. The plate is covered with a plastic self-adhesive film, centrifuged at 1200 rpm for 1 minute and subsequently stored at +4° C. over night.
After over night incubation the fluorescence is measured by the use of an appropriate microplate reader. The fluorescence of europium cryptate, and d2 are measured using the following excitation and emission wavelength, europium cryptate: λmax^ex=307 nm, λmax^em=620 nm and d2: λmax^ex=620 nm, λmax^em=665 nm), respectively. The extent of the specific FRET is measured as a ratio of the emission intensity at 665 nm vs. that at 620 nm. A standard curve using synthetic PGE2 is used to quantify the amount of PGE2 in unknown samples.

Row | SMILES | inhibition at 10 µM
1 | CC(F)(F)c1cccc(NC(=O)c2cc3nc(Nc4c(Cl)cncc4Cl)[nH]c3cc2OCC(F)(F)F)n1 [Example 706] | 100%
2 | COc1cc2[nH]c(Nc3c(Cl)cncc3Cl)nc2cc1C(=O)Nc1cc(C(F)(F)F)cc(C)n1 [Example 681, 2-(3,5-Dichloro-pyridin-4-ylamino)-6-methoxy-N-(6-methyl-4-trifluoromethyl-pyridin-2-yl)-1H-benzimidazole-5-carboxamide] | 100%
3 | COc1cc2c(cc1C(=O)Nc1ccc(Br)cc1)nc(Nc1c(Cl)cncc1Cl)n2C [Example 679, 2-(3,5-Dichloro-pyridin-4-ylamino)-6-methoxy-N-(4-bromophenyl)-1-methyl-1H-benzimidazole-5-carboxamide] | 100%
4 | Cc1ccnc(Cl)c1Nc1nc2ccc(C(=O)Nc3cccc(Cl)c3)cc2[nH]1 [Example 521, 2-(2-Chloro-4-methylpyridin-3-ylamino)-N-(3-chlorophenyl)-1H-benzimidazole-5-carboxamide] | 95%
5 | O=C(Nc1cccc(C(F)F)n1)c1cc2nc(Nc3c(Cl)cncc3Cl)[nH]c2cc1OCC(F)(F)F [Example 708, 2-(3,5-Dichloropyridin-4-ylamino)-N-(6-difluoromethyl-pyridin-2-yl)-6-(2,2,2-trifluoroethoxy)-1H-benzimidazole-6-carboxamide] | 100%
6 | Cn1c(Nc2c(Cl)cncc2Cl)nc2cc(C(=O)NC3CCCCC3)ccc21 [Example 547, N-Cyclohexyl-2-(3,5-dichloropyridin-4-ylamino)-1-methyl-1H-benzimidazole-5-carboxamide] | 96%
7 | O=C(N[C@H]1CC[C@H](C(F)(F)F)CC1)c1cc2nc(Nc3c(Cl)cncc3Cl)[nH]c2cc1OCCF [Example 677, 2-(3,5-Dichloropyridin-4-ylamino)-N-(trans-4-trifluoromethyl-cyclohex-1-yl)-6-(2-fluoroethoxy)-1H-benzimidazole-5-carboxamide] | 100%
8 | O=C(Nc1ccc(Br)cc1)c1cc2nc(Nc3c(Cl)cncc3Cl)[nH]c2cc1OC(F)F [Example 703, 2-(3,5-Dichloropyridin-4-ylamino)-N-(4-bromo-phenyl)-6-difluoromethoxy-1H-benzimidazole-5-carboxamide] | 98%
9 | CC1(C)CCC(NC(=O)c2ccc3[nH]c(Nc4c(Cl)cncc4Cl)nc3c2)CC1 [Example 446, 2-(3,5-Dichloropyridin-4-ylamino)-N-(4,4-dimethylcyclohexyl)-1H-benzimidazole-5-carboxamide] | 100%
10 | Cn1c(Nc2c(Cl)cncc2Cl)nc2cc(C(=O)NC3CCC(C)(C)CC3)ccc21 [Example 435, 2-(3,5-dichloropyridin-4-ylamino)-N-(4,4-dimethylcyclohexyl)-1-methyl-1H-benzimidazole-5-carboxamide] | 100%
11 | CC1(C)CCC(NC(=O)c2ccc3nc(Nc4c(Cl)cncc4Cl)[nH]c3c2)CC1 [Example 409, 2-(3,5-Dichloropyridin-4-ylamino)-N-(4,4-dimethylcyclohexyl)-1H-benzimidazole-6-carboxamide] | 100%
12 | CCOc1cc2[nH]c(Nc3c(Cl)cncc3Cl)nc2cc1C(=O)Nc1cc(C(F)F)c(F)cn1 [Example 655, 2-(3,5-Dichloro-pyridin-4-yl-amino)-6-ethoxy-N-(5-fluoro-4-difluoromethyl-pyridin-2-yl)-1H-benzimidazole-5-carboxamide] | 100%
13 | CCOc1cc2[nH]c(Nc3c(Cl)cncc3Cl)nc2cc1C(=O)Nc1cc(C)cc(C(F)(F)F)n1 [Example 709] | 100%
14 | COCCOc1cc2c(cc1C(=O)NC1CCC(C)(C)CC1)nc(Nc1c(Cl)cncc1Cl)n2C [Example 671, 2-(3,5-Dichloropyridin-4-ylamino)-N-(4,4-dimethyl-cyclohexyl)-6-(2-methoxy-ethoxy)-1-methyl-1H-benzimidazole-5-carboxamide] | 100%
15 | CCOc1cc2c(cc1C(=O)NCc1ncccc1C(F)(F)F)nc(Nc1c(Cl)cncc1Cl)n2C [Example 668, 2-(3,5-Dichloropyridin-4-ylamino)-N-((3-trifluoromethyl-pyridin-2-yl)-methyl)-6-ethoxy-1-methyl-1H-benzimidazole-5-carboxamide] | 100%
16 | O=C(Nc1cccc(Cl)c1)c1ccc2nc(Nc3c(Cl)cncc3Cl)[nH]c2c1 [Example 434, N-(3-Chlorophenyl)-2-(3,5-dichloropyridin-4-ylamino)-1H-benzimidazole-5-carboxamide] | 98%

Row | SMILES | inhibition at 10 µM
17 | CCOc1cc2c(cc1C(=O)Nc1ccc(Br)cc1)nc(Nc1c(Cl)cncc1Cl)n2CC(F)(F)F [Example 704] | 100%
18 | Cn1c(Nc2c(Cl)cncc2Cl)nc2cc(C(=O)NCc3ccccc3C(F)(F)F)ccc21 [Example 467, 2-(3,5-Dichloropyridin-4-ylamino)-1-methyl-N-(2-trifluoromethyl-benzyl)-1H-benzimidazole-5-carboxamide] | 96%
19 | CCOc1cc2[nH]c(Nc3c(Cl)cncc3Cl)nc2cc1C(=O)NCc1ncccc1C(F)(F)F [Example 667, 2-(3,5-Dichloropyridin-4-ylamino)-N-((3-trifluoromethyl-pyridin-2-yl)-methyl)-6-ethoxy-1H-benzimidazole-5-carboxamide] | 99%
20 | CN(C)CCOc1cc2[nH]c(Nc3c(Cl)cncc3Cl)nc2cc1C(=O)Nc1ccc(Br)cc1 [Example 687, 2-(3,5-Dichloro-pyridin-4-ylamino)-6-(2-dimethylamino-ethoxy)-N-(4-bromo-phenyl)-1H-benzimidazole-5-carboxamide] | 96%
21 | Cc1ccnc(Cl)c1Nc1nc2ccc(C(=O)NC3CCC(C)(C)CC3)cc2[nH]1 [Example 531, 2-(2-Chloro-4-methylpyridin-3-ylamino)-N-(4,4-dimethylcyclohexyl)-1H-benzimidazole-5-carboxamide] | 93%
22 | CCOc1cc2[nH]c(Nc3c(Cl)cncc3Cl)nc2cc1C(=O)N[C@H]1CC[C@H](C(F)(F)F)CC1 [Example 690, 2-(3,5-Dichloropyridin-4-ylamino)-N-(trans-4-trifluoromethyl-cyclohex-1-yl)-6-ethoxy-1H-benzimidazole-5-carboxamide] | 100%
23 | CCOc1cc2[nH]c(Nc3c(Cl)cncc3Cl)nc2cc1C(=O)Nc1cc(C(F)(F)F)ccn1 [Example 694, 2-(3,5-Dichloropyridin-4-ylamino)-N-(4-trifluoromethyl-pyridin-2-yl)-6-ethoxy-1H-benzimidazole-6-carboxamide] | 98%
24 | O=C(Nc1ccc(Br)cc1)c1cc2nc(Nc3c(Cl)cncc3Cl)[nH]c2cc1OCCF [Example 678, 2-(3,5-Dichloropyridin-4-ylamino)-N-(4-bromophenyl)-6-(2-fluoroethoxy)-1H-benzimidazole-5-carboxamide] | 100%
25 | COCCOc1cc2c(cc1C(=O)Nc1ccc(Br)cc1)nc(Nc1c(Cl)cncc1Cl)n2C [Example 666, 2-(3,5-Dichloropyridin-4-ylamino)-N-(4-bromophenyl)-6-(2-methoxy-ethoxy)-1-methyl-1H-benzimidazole-5-carboxamide] | 100%
26 | COc1cc2[nH]c(Nc3c(Cl)cncc3Cl)nc2cc1C(=O)NCc1ncccc1C1CCC1 [Example 688, 2-(3,5-Dichloro-pyridin-4-ylamino)-N-((3-cyclobutyl-pyridin-2-yl)-methyl)-6-methoxy-1H-benzimidazole-5-carboxamide] | 100%
27 | COCCOc1cc2[nH]c(Nc3c(Cl)cncc3Cl)nc2cc1C(=O)Nc1ccc(Br)cc1 [Example 685, 2-(3,5-Dichloro-pyridin-4-ylamino)-6-(2-methoxy-ethoxy)-N-(4-bromo-phenyl)-1H-benzimidazole-5-carboxamide] | 98%
28 | CC1(C)CCC(NC(=O)c2cc3nc(Nc4c(Cl)cncc4Cl)[nH]c3cc2F)CC1 [Example 673, 2-(3,5-Dichloro-pyridin-4-yl-amino)-6-fluoro-N-(4,4-dimethyl-cyclohex-1-yl)-1H-benzimidazole-5-carboxamide] | 100%
29 | CCOc1cc2[nH]c(Nc3c(Cl)cncc3Cl)nc2cc1C(=O)Nc1cccc(C(F)F)n1 [Example 698] | 99%
30 | Cn1c(Nc2c(Cl)cncc2Cl)nc2cc(C(=O)Nc3ccc(Br)cc3)c(OCCN3CCCC3)cc21 [Example 663, 2-(3,5-Dichloropyridin-4-ylamino)-N-(4-bromophenyl)-6-(2-(pyrrolidin-1-yl)-ethoxy)-1-methyl-1H-benzimidazole-5-carboxamide] | 96%
31 | CCOc1cc2[nH]c(Nc3c(Cl)cncc3Cl)nc2cc1C(=O)Nc1ccc(F)c(C(F)F)n1 [Example 710, 2-(3,5-Dichloropyridin-4-ylamino)-N-(5-fluoro-6-difluoromethyl-pyridin-2-yl)-6-ethoxy-1H-benzimidazole-6-carboxamide] | 98%
